Test [1] has as its system in vivo ischemic rat brain model. Description: Cerebroprotective effect on in vivo ischemic rat brain model. Particulars: for % Infarct size/hemisphere / TUNEL-Positive Cells (% Right/Left Hemisphere): 60 min ischemia, 24 hours reperfusion. The protocol:
In order to examine whether the benzothiophen-2-carbonylguanidine derivatives of the present invention protect the brain from ischemia-reperfusion-induced cerebral injury, the following experiment was conducted.
Male Sparague-Dawley Rats (350±50 g, Samyook Experimental Animal Lab) were anesthetized and intraperitoneally injected with heparine. After ischemia by the occlusion of the right carotid artery for 60 min, reperfusion was performed for 24 hours. Compounds or a vehicle was intravenously injected at 20 min before the occlusion.
After the perfusion for 24 hours, rats were anesthetized with a fatal dose of sodium pentobarbital. The brains were carefully isolated and transected at intervals of 2 mm. The coronary slices thus obtained were stained at 37° C. for 20 min using a 2% 2,3,5-triphenyltetrazolium chloride solution. Stained slices were analyzed for % necrosis area relative to total brain area using an image analyzer (BAS image 1500). Also, the cerebroprotective activity of the compounds against brain edema was expressed as % volume of the left hemisphere relative to that of the ischemic right hemisphere.

Test [2] deals with in vivo ischemic rat heart model. The experiment in a line: Cardioprotective effect on in vivo ischemic rat heart model (coronary occlusion/reperfusion, infarct size). The conditions noted are these: 45 min occlusion, 90 min reperfusion. The protocol:
The cardioprotective effect of the benzothiophen-2-carbonylguanidine derivatives according to the present invention in in vivo ischemic hearts was judged with regard to their antischemic effects (myocardiac infarction reduction) on rats as follows.
Each male rat (300˜450 g, the Korea Research Institute of Chemical Technology, Experimental Animal Lab) was anesthetized by intraperitoneal injection with sodium pentobarbital at a dose of 75 mg/kg. Tracheotomy was performed and a tube was inserted into the trachea for subsequent artificial ventilation with a stroke volume of 10 ml/kg and a respiratory rate of 60 breaths/min. The femoral vein and the femoral artery were cannulated for the administration of the compounds and for the measurement of blood pressures, respectively. Meanwhile, the body temperature of the rats, an important factor to influence experimental results in the ischemic myocardiac injury model, was maintained constant at 37° C. using a homeothermic blanket control unit, with a body temperature-monitoring probe inserted into the rectum. Subsequently, rats were continuously measured for mean arterial blood pressure and heart rate HR throughout the experimental time period using a Statham P23XL pressure transducer (Grass Ins., Mass., USA) and an ECG/RATE Coupler (Hugo Sachs Electronic, Germany), respectively, with all continuous changes thereof recorded by Graphtec Linearcorder WR 3310 (Hugo Sachs Electronic).
The left coronary artery was occluded according to Selye H.'s method. In detail, after the chest of each rat was partially opened by left thoracotomy, the middle finger of the left hand was pressed against the right side of the chest of the rat to thrust out the heart which was then slightly fixed with the forefinger and the thumb of the same hand. Then, immediately after the left anterior descending coronary artery (LAD) was sutured with a 5-0 silk ligature, the heart was repositioned back in the thoracic cavity with both ends of the suture positioned outside. The ends of the suture were threaded through a PE tube (PE100, 2.5 cm) and allowed to stand for 20 min for stabilization. Through the cannula inserted into the femoral vein, a vehicle or the compounds of the invention were administered and 30 min was needed for sufficient effects of the administered compounds. Cariporide was used as a control. The ends of the suture threaded through the PE tube were pulled taut with hemostatic forceps to vertically press the PE tube against the coronary artery. After occlusion for 45 min, the hemostatic forceps were removed and reperfusion was conducted for 90 min.
The coronary artery was reoccluded in the same manner as described above, followed by the intravenous injection of 2 ml of 1% Evans blue. The intravenous injection of an excess of pentobarbital killed the rats, from which the hearts were then excised. The left ventricle was removed alone from the isolated heart and transected from the cardiac apex into 5 or 6 slices. Each slice was weighed. The image of each of the heart slices was captured using a Hi-scope, a compact vision system, and analyzed for blue-stained normal areas and non-stained areas with an image analyzing program (Image Pro Plus). In each slice, the area at risk (AAR) was calculated by multiplying the ratio of the non-stained area to the total area of the slice with the weight of the slice. Sum of the individual area at risk (AAR) for each slice was divided by the total weight of the left ventricle to obtain AAR (%) according to the following mathmatical formula 1.
Separately, the heat slices were incubated in 1%. 2,3,5-triphenyltetrazolium chloride (TTC) phosphate buffer (pH 7.4), 37° C., for 15 min and fixed in 10% formalin for 20˜24 hours. In the normal area of the tissue, 2,3,5-triphenyltetrazolium chloride was reduced by the myocardial dehydrogenase in the presence of the cofactor NADH to form formazan dye, which appeared as a brick-red color. […]

Where [3] appears, read: 0.1 mg/kg intravenous 20 min before occlusion.
Where [4] appears, read: 0.3 mg/kg intravenous 20 min before occlusion.

With `CS(=O)(=O)O.N#Cc1cccc2sc(C(=O)N=C(N)N)cc12` [Example 42, (4-Cyanobenzothiophene-2-Carbonyl)Guanidine Methanesulfonate], the “% Infarct size/hemisphere” value in test [1] (setting [3]) was determined as 21.4%; in test [1] (setting [4]), 18.6%. Moreover, the “TUNEL-Positive Cells (% Right/Left Hemisphere)” value in test [1] (setting [3]) turned out to be 111.2%; in test [1] (setting [4]), 107.96%. Further, in test [1] (injection doses of both 0.1 mg/kg and 0.3 mg/kg), the “ischemia/reperfusion-induced brain infarction and brain edema” value is reported as “significantly reduced”. In addition, the “Myocardiac infarction rate (IS/AAR, %)” value in test [2] (0.1 mg/kg intravenous) is 36.9%; in test [2] (0.3 mg/kg intravenous), 34.4%.

Values taken from US8143307B2, “Benzothiophen-2-carbonylguanidine derivatives, preparation thereof, and pharmaceutical composition containing the same” (Korea Research Institute of Chemical Technology, priority 2004, dated 2012).
